Key:
[1] = system: ventral tegmental dopamine (DA) neurons of MAM rats; details: cited from earlier work
[2] = system: MAM-treated rats; details: cited from earlier work
[3] = system: HPC neurons in saline-treated and MAM-treated animals; details: cited from earlier work
[4] = system: Memory-impaired aged rats; assay: Radial Arm Maze task, 2-hr delay, acute brivaracetam or seletracetam; assay type: in vivo, rat; details: 0.0625-4 mg/kg i.p. 30-40 min prior to test sessions; repeated measures ANOVA
Procedure: (§1) The radial arm maze experiments used acute administration of seletracetam (0-4 mg/kg), brivaracetam (0-4 mg/kg), or saline vehicle given by intraperitoneal injection (in a volume of 1 ml/kg) 30-40 min prior to test sessions. In the chronic treatment experiment, memory-impaired aged rats were implanted subcutaneously in the intrascapular region with osmotic mini-pumps (ALZET, Durect Corporation, Cupertino, Calif.) with brivaracetam (2 mg/kg/day) or saline vehicle starting two weeks prior to assessment in the water maze.
A radial arm maze (RAM) task was used to assess effects of acute drug treatment with seletracetam and brivaracetam. This protocol allowed within-subject assessment across drugs at different doses. The radial maze consisted of eight arms projecting from each side of an octagonal center platform, with a food well located at the distal end of each arm. Plexiglas blocks could be positioned to prevent entry into any arm. Extra-maze cues were provided in the room surrounding the maze and illumination was provided by an overhead light.
Pre-training, as described in detail in Chappell et al. Neuropharmacology 37: 481-487, (1998), consisted of habituation, standard win-shift training, and win-shift training with delays interposed between information and memory test phases. […]

[5] = system: Memory-impaired aged rats; assay: water maze probe test after chronic brivaracetam (osmotic mini-pumps); assay type: in vivo, rat; details: brivaracetam 2 mg/kg/day, 14 days
Procedure: as §1
Rats were trained and tested in a novel water maze environment to assess the effect of drug treatment. The water maze used here was housed in a different building and was surrounded by curtains with a novel set of patterns relative to the maze used for initial assessment of cognitive status. The training protocol consisted of 6 trials per day for 2 days to locate a submerged escape platform. On each trial, a rat was released in the maze from one of four equally spaced starting positions around the perimeter of the pool. The starting position varied from trial to trial. […] The rat was then removed from the platform and placed in a holding cage for another 40 s before the next trial. Approximately 24 hr after the last training trial, a probe test in the absence of the escape platform was given to assess spatial memory.

C#Cc1ccc2c(c1)C(c1ccccc1F)=N[C@H](C)c1c(C(=O)OCC)ncn1-2 [SH-053-2′F—R—CH3]
number of spontaneously active DA neurons in the ventral tegmental area (VTA) of MAM rats ([1]; administered systemically and directly infused into the ventral HPC): reduces
increased locomotor response to amphetamine in MAM-treated rats ([2]; following the α5GABAAR PAM treatment): reduced
cortical-evoked responses of HPC neurons [3]: diminished

NC1=N[C@H](O)[C@H]2[C@H]3O[C@]4(O)O[C@@H]([C@@H](O)[C@@]2(N1)[C@@H]4O)[C@]3(O)CO [TTX, tetrodotoxin]
elevated DA neuron population activity ([1]; rat, in vivo): completely reversed
augmented amphetamine-induced locomotor behavior ([2]; rat, in vivo): normalized

CCC[C@@H]1CC(=O)N([C@@H](CC)C(N)=O)C1 [brivaracetam]
number of errors in the retention phase after the 2-hr delay, effect of dose [4]: significant effect as a function of dose
spatial bias for the target quadrant compared to the other quadrants [5]: significant spatial bias
time in the target annulus vs vehicle-treated rats [5]: significantly more time
time in the target quadrant vs vehicle-treated rats [5]: significantly more time

CC[C@@H](C(N)=O)N1C[C@H](C=C(F)F)CC1=O [seletracetam]
number of errors in the retention phase after the 2-hr delay, effect of dose [4]: significant effect as a function of dose

From patent US20160030391A1, “METHODS AND COMPOSITIONS FOR IMPROVING COGNITIVE FUNCTION” (THE JOHNS HOPKINS UNIVERSITY, priority 2013, published 2016)
